Experiment [1] has as its target T1, A disintegrin and metalloproteinase with thrombospondin motifs 4 (Homo sapiens, UniProt O75173).
T1 sequence (O75173 whole entry): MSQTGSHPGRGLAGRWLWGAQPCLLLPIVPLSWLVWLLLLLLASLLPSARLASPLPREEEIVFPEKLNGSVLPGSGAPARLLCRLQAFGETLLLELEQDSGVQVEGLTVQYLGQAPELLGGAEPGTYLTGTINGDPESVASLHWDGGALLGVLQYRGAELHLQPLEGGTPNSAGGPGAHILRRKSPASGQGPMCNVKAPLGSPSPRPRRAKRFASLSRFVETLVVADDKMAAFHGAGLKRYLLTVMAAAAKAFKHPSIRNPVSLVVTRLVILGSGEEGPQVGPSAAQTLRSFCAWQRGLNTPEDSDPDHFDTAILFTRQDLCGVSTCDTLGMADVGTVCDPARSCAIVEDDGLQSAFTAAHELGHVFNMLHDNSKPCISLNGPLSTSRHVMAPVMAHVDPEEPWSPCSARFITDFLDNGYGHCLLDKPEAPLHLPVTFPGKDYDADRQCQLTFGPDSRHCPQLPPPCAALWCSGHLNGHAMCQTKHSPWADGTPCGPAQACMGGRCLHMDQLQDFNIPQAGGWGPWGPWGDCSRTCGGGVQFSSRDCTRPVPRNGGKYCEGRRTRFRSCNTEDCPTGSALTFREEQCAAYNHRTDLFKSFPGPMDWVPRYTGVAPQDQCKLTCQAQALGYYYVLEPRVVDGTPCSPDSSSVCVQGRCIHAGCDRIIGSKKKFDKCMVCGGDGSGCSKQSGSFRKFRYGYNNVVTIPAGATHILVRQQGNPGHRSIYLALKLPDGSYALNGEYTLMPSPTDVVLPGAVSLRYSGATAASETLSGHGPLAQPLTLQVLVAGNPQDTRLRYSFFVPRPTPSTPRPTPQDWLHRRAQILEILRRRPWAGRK
Put plainly: Inhibition of recombinant human ADAMTS4 (213 to 575 amino acid residues) using WAAG-3R as substrate preincubated for 15 mins followed by substrate addition measured every 30 secs for 1 hr.

In experiment [2] the target is T2, A disintegrin and metalloproteinase with thrombospondin motifs 5 (Homo sapiens) (UniProt Q9UNA0).
T2 sequence (whole entry): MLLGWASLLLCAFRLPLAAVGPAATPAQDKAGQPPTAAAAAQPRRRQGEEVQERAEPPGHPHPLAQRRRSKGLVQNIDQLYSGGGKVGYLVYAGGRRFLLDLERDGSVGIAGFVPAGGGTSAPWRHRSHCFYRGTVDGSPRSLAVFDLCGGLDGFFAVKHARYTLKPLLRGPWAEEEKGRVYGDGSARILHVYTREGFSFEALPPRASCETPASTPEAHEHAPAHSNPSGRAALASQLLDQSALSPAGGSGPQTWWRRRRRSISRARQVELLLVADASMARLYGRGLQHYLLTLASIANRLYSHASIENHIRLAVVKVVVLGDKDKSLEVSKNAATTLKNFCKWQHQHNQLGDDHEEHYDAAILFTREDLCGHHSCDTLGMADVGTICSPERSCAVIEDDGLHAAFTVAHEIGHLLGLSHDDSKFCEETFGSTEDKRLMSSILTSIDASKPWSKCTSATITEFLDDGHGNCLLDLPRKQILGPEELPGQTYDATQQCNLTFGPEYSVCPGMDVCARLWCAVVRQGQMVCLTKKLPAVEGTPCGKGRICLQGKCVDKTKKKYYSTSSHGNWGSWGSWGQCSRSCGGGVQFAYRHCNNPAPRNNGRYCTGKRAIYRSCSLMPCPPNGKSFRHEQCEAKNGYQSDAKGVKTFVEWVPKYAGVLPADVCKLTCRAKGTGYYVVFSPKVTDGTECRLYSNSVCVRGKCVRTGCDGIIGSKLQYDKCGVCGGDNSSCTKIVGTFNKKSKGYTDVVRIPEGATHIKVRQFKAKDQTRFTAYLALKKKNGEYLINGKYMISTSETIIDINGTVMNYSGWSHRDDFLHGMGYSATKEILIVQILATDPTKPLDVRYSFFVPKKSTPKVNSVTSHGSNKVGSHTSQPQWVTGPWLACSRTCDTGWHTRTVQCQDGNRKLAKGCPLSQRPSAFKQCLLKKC
Put plainly: Inhibition of ADAMTS5 (unknown origin) using WAAG-3R as substrate at 10 uM preincubated for 15 mins followed by substrate addition measured every 30 secs for 1 hr relative to control.

The target of experiment [3] is T3, A disintegrin and metalloproteinase with thrombospondin motifs 5 (Homo sapiens, UniProt Q9UNA0).
T3 sequence (Q9UNA0 whole entry): T2 sequence (whole entry)
Put plainly: Inhibition of ADAMTS5 (unknown origin) using WAAG-3R as substrate preincubated for 15 mins followed by substrate addition measured every 30 secs for 1 hr.

Experiment [4] has as its target T4, A disintegrin and metalloproteinase with thrombospondin motifs 13 (Homo sapiens, UniProt Q76LX8).
T4 sequence (Q76LX8 whole entry): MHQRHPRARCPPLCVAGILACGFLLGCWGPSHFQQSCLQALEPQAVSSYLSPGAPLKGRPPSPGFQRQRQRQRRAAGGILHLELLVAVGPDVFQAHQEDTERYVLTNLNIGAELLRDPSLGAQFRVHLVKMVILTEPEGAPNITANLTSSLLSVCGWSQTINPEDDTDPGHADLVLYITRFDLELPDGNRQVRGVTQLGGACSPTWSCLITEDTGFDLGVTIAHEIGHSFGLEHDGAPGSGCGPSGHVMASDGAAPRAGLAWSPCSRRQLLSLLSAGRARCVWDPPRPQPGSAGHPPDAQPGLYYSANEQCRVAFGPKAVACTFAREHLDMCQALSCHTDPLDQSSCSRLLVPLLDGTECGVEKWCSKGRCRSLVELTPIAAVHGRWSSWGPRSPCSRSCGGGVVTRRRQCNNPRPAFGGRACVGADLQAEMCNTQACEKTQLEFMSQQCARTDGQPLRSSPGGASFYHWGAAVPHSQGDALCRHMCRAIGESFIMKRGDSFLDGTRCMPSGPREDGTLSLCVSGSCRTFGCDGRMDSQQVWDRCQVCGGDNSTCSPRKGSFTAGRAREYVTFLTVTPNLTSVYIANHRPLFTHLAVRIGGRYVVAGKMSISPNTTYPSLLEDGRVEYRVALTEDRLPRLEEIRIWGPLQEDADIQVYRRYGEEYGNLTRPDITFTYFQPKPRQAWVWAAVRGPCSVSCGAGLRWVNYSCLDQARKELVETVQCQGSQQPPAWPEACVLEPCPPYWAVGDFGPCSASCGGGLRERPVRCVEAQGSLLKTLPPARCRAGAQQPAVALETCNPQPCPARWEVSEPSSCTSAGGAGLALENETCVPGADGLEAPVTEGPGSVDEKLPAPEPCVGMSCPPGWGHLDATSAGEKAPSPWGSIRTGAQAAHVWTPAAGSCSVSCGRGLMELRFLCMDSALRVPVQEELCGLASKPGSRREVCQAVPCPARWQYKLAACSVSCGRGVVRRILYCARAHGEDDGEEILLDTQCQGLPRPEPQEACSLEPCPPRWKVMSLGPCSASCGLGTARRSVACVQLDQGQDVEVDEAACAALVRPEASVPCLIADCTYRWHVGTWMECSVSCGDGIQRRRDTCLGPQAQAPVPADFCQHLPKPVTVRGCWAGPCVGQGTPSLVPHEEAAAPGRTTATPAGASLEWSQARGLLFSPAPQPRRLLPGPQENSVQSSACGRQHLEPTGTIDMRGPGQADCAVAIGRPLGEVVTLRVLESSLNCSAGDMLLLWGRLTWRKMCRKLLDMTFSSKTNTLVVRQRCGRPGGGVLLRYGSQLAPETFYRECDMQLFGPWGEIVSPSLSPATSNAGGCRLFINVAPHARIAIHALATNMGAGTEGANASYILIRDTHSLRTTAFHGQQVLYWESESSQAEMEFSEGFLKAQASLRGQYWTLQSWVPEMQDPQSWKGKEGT
Description: Inhibition of human recombinant ADAMTS13 using FRETSVWF73 as substrate by fluorescence assay.

Experiment [5] deals with Collagenase 3 (Homo sapiens, UniProt P45452). Description: Inhibition of human recombinant MMP13 using 5-FAMTPGPLGL[Dap(DNP)]ARRK(5-TAMRA)-amide as substrate after 45 mins.
Experiment [6] has as its target Disintegrin and metalloproteinase domain-containing protein 17 (Homo sapiens, UniProt P78536). Description: Inhibition of human recombinant TACE using Mca-PLAQAV-Dpa-RSSSR-NH2 as substrate preincubated for 15 mins measured every 30 secs for 30 mins by fluorescence assay.

The structures appear in SMILES notation. Some results are limits rather than exact numbers.

Disintegrin and metalloproteinase domain-containing protein 17, sequence (P78536 whole entry, the tested form may be a part): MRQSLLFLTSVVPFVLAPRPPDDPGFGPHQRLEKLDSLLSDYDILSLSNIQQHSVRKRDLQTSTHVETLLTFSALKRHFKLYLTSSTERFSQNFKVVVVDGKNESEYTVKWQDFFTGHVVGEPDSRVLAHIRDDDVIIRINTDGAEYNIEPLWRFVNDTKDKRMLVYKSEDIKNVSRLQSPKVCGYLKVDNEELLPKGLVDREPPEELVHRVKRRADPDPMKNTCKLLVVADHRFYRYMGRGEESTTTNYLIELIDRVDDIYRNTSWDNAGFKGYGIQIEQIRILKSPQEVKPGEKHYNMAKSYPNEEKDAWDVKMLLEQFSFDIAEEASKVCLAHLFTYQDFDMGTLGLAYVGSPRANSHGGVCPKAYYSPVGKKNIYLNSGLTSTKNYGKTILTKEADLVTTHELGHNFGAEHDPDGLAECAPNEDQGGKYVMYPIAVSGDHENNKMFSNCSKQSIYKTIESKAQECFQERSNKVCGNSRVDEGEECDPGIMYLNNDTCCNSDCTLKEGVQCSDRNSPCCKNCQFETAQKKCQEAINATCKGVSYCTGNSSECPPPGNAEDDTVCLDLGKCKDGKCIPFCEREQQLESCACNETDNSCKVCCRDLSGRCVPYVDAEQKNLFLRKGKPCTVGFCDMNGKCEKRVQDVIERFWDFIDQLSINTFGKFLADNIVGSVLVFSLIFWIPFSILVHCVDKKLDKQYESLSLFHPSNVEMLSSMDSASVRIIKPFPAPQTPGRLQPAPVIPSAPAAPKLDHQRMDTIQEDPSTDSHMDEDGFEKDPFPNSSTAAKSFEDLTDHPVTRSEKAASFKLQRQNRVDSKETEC

Regarding `CCN(C(=O)c1ccc(CNc2nc(NCCN3CCN(C)CC3)nc(N3CCc4cc(OC)c(OC)cc4C3)n2)cc1)c1cccc(C)c1`, the IC50 is 0.01 µM in experiment [1]; over 10 µM in experiment [3]; over 10 µM in experiment [4]; over 10 µM in experiment [5]; over 10 µM in experiment [6]. In addition, the inhibition in experiment [2] amounted to 30%.

The values are drawn from ChEMBL document CHEMBL3621096, “Discovery of Potent and Selective Inhibitors for ADAMTS-4 through DNA-Encoded Library Technology (ELT)” (ACS Med Chem Lett, 2015).
